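GI50 marks 50% less growth. TGI is the concentration that stops growth completely.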
Assays:
Assay in all cases: inhibition of tumour cell growth, NCI panel, 384-well format
[1] = tested on: SF-268 CNS
[2] = tested on: NCI/ADR-RES ovarian
[3] = tested on: LOX IMVI melanoma
[4] = tested on: NCI-H23 lung
[5] = tested on: DU-145 prostate
[6] = tested on: HCT-15 colon
[7] = tested on: T-47D breast
[8] = tested on: K-562 leukemia
[9] = tested on: MDA-MB-468 breast
[10] = tested on: SK-MEL-28 melanoma
[11] = tested on: COLO 205 colon
[12] = tested on: MDA-MB-435 melanoma
[13] = tested on: UO-31 renal
[14] = tested on: HCT-116 colon
[15] = tested on: HT29 colon
[16] = tested on: PC-3 prostate
[17] = tested on: 786-0 renal
[18] = tested on: A549 NSCLC
[19] = tested on: NCI-H226 lung
[20] = tested on: U251 glioblastoma
[21] = tested on: SN12C renal
[22] = tested on: SK-MEL-5 melanoma
[23] = tested on: NCI-H322M lung
[24] = tested on: EKVX NSCLC
[25] = tested on: IGROV1 ovarian
[26] = tested on: NCI-H522 lung
[27] = tested on: SF-295 CNS
[28] = tested on: HOP-92 NSCLC
[29] = tested on: SF-539 CNS
[30] = tested on: OVCAR-5 ovarian
[31] = tested on: SK-OV-3 ovarian
[32] = tested on: HL-60(TB) leukemia
[33] = tested on: ACHN renal
[34] = tested on: HCC-2998 colon
[35] = tested on: NCI-H460 NSCLC
[36] = tested on: HS 578T breast
[37] = tested on: SNB-75 CNS
[38] = tested on: BT-549 breast
[39] = tested on: MDA-MB-231 breast
[40] = tested on: M14 melanoma
[41] = tested on: MOLT-4 leukemia
[42] = tested on: RXF 393 renal
[43] = tested on: SR leukemia
[44] = tested on: RPMI-8226 leukemia
[45] = tested on: MCF7 breast
[46] = tested on: OVCAR-4 ovarian
[47] = tested on: SW-620 colon
[48] = tested on: SNB-19 CNS
[49] = tested on: A498 renal
[50] = tested on: OVCAR-8 ovarian
[51] = tested on: TK-10 renal
[52] = tested on: KM12 colon
[53] = tested on: MALME-3M melanoma
[54] = tested on: CCRF-CEM leukemia
[55] = tested on: CAKI-1 renal
[56] = tested on: OVCAR-3 ovarian
[57] = tested on: HOP-62 NSCLC
[58] = tested on: UACC-257 melanoma

Q: Which GI50 [1] does the source give for `O=C(NC[C@H](O)CO)c1ccncc1Nc1ccc(I)cc1F` here?
A: The GI50 was > 100 µM.

Q: What about the TGI [1] of the same molecule?
A: Its TGI is > 100 µM.

Q: What about the GI50 [2] of the same molecule?
A: Its GI50 is 22.3 µM.

Q: What about the TGI [2] of the same molecule?
A: The TGI was > 100 µM.

Q: What about the GI50 [3] of the same molecule?
A: The GI50 was 0.0887 µM.

Q: What about the TGI [3] of the same molecule?
A: The TGI was 1.72 µM.

Q: What about the GI50 [4] of the same molecule?
A: Its GI50 is 0.0413 µM.

Q: What about the TGI [4] of the same molecule?
A: The TGI was 1.73 µM.

Q: And the GI50 [5]?
A: The GI50 was 8.45 µM.

Q: What about the TGI [5] of the same molecule?
A: The TGI was > 100 µM.

Q: And the GI50 [6]?
A: The GI50 was 3.19 µM.

Q: What about the TGI [6] of the same molecule?
A: The TGI was > 100 µM.

Q: What about the GI50 [7] of the same molecule?
A: Its GI50 is 26.1 µM.

Q: What about the TGI [7] of the same molecule?
A: The TGI was > 100 µM.

Q: What about the GI50 [8] of the same molecule?
A: The GI50 was 0.423 µM.

Q: And the TGI [8]?
A: The TGI was > 100 µM.

Q: What about the GI50 [9] of the same molecule?
A: Its GI50 is 14.8 µM.

Q: And the TGI [9]?
A: The TGI was 36.2 µM.

Q: What about the GI50 [10] of the same molecule?
A: The GI50 was < 0.01 µM.

Q: And the TGI [10]?
A: The TGI was 0.0136 µM.

Q: And the GI50 [11]?
A: Its GI50 is < 0.01 µM.

Q: What about the TGI [11] of the same molecule?
A: Its TGI is 0.171 µM.

Q: What about the GI50 [12] of the same molecule?
A: The GI50 was 0.0134 µM.

Q: And the TGI [12]?
A: The TGI was > 100 µM.

Q: And the GI50 [13]?
A: The GI50 was 0.354 µM.

Q: What about the TGI [13] of the same molecule?
A: Its TGI is 11.5 µM.

Q: What about the GI50 [14] of the same molecule?
A: Its GI50 is 0.0614 µM.

Q: What about the TGI [14] of the same molecule?
A: The TGI was 1.45 µM.

Q: What about the GI50 [15] of the same molecule?
A: Its GI50 is 0.0156 µM.

Q: What about the TGI [15] of the same molecule?
A: The TGI was > 100 µM.

Q: And the GI50 [16]?
A: Its GI50 is > 100 µM.

Q: And the TGI [16]?
A: The TGI was > 100 µM.

Q: And the GI50 [17]?
A: The GI50 was 19.6 µM.

Q: And the TGI [17]?
A: The TGI was > 100 µM.

Q: And the GI50 [18]?
A: The GI50 was 0.3 µM.

Q: And the TGI [18]?
A: Its TGI is 18.8 µM.

Q: And the GI50 [19]?
A: The GI50 was 0.614 µM.

Q: And the TGI [19]?
A: Its TGI is 47.4 µM.

Q: What about the GI50 [20] of the same molecule?
A: The GI50 was 1.67 µM.

Q: What about the TGI [20] of the same molecule?
A: The TGI was > 100 µM.

Q: What about the GI50 [21] of the same molecule?
A: The GI50 was 4.09 µM.

Q: What about the TGI [21] of the same molecule?
A: The TGI was > 100 µM.

Q: And the GI50 [22]?
A: The GI50 was 0.0331 µM.

Q: What about the TGI [22] of the same molecule?
A: Its TGI is 13.9 µM.

Q: What about the GI50 [23] of the same molecule?
A: Its GI50 is 0.498 µM.

Q: And the TGI [23]?
A: Its TGI is > 100 µM.

Q: And the GI50 [24]?
A: Its GI50 is 8.37 µM.

Q: And the TGI [24]?
A: The TGI was > 100 µM.

Q: And the GI50 [25]?
A: The GI50 was 0.0849 µM.

Q: And the TGI [25]?
A: Its TGI is 10.9 µM.

Q: What about the GI50 [26] of the same molecule?
A: Its GI50 is 13.6 µM.

Q: What about the TGI [26] of the same molecule?
A: The TGI was > 100 µM.

Q: And the GI50 [27]?
A: The GI50 was 30.6 µM.

Q: What about the TGI [27] of the same molecule?
A: Its TGI is > 100 µM.

Q: What about the GI50 [28] of the same molecule?
A: The GI50 was 0.484 µM.

Q: And the TGI [28]?
A: Its TGI is 3.62 µM.

Q: And the GI50 [29]?
A: Its GI50 is 2.9 µM.

Q: What about the TGI [29] of the same molecule?
A: The TGI was 25 µM.

Q: And the GI50 [30]?
A: Its GI50 is 0.0476 µM.

Q: And the TGI [30]?
A: The TGI was > 100 µM.

Q: And the GI50 [31]?
A: Its GI50 is 23.1 µM.

Q: What about the TGI [31] of the same molecule?
A: Its TGI is > 100 µM.

Q: What about the GI50 [32] of the same molecule?
A: The GI50 was < 0.01 µM.

Q: And the TGI [32]?
A: The TGI was 0.0114 µM.

Q: What about the GI50 [33] of the same molecule?
A: Its GI50 is 13.8 µM.

Q: And the TGI [33]?
A: Its TGI is > 100 µM.

Q: What about the GI50 [34] of the same molecule?
A: The GI50 was 0.0278 µM.

Q: And the TGI [34]?
A: The TGI was 0.217 µM.

Q: And the GI50 [35]?
A: The GI50 was 1.55 µM.

Q: And the TGI [35]?
A: Its TGI is > 100 µM.

Q: What about the GI50 [36] of the same molecule?
A: The GI50 was 16 µM.

Q: What about the TGI [36] of the same molecule?
A: Its TGI is > 100 µM.

Q: And the GI50 [37]?
A: The GI50 was 8.92 µM.

Q: And the TGI [37]?
A: Its TGI is 68 µM.

Q: What about the GI50 [38] of the same molecule?
A: Its GI50 is 15 µM.

Q: What about the TGI [38] of the same molecule?
A: Its TGI is > 100 µM.

Q: And the GI50 [39]?
A: Its GI50 is 0.449 µM.

Q: What about the TGI [39] of the same molecule?
A: Its TGI is 24.4 µM.

Q: What about the GI50 [40] of the same molecule?
A: The GI50 was < 0.01 µM.

Q: What about the TGI [40] of the same molecule?
A: Its TGI is 0.0235 µM.

Q: And the GI50 [41]?
A: The GI50 was 12.3 µM.

Q: What about the TGI [41] of the same molecule?
A: Its TGI is 25.2 µM.

Q: And the GI50 [42]?
A: The GI50 was 2.03 µM.

Q: What about the TGI [42] of the same molecule?
A: The TGI was 17.4 µM.

Q: And the GI50 [43]?
A: The GI50 was 1.33 µM.

Q: And the TGI [43]?
A: Its TGI is 15.9 µM.

Q: What about the GI50 [44] of the same molecule?
A: Its GI50 is 7.66 µM.

Q: What about the TGI [44] of the same molecule?
A: The TGI was 47.3 µM.

Q: What about the GI50 [45] of the same molecule?
A: The GI50 was 18.9 µM.

Q: And the TGI [45]?
A: The TGI was > 100 µM.

Q: What about the GI50 [46] of the same molecule?
A: Its GI50 is 21.5 µM.

Q: What about the TGI [46] of the same molecule?
A: The TGI was > 100 µM.

Q: And the GI50 [47]?
A: Its GI50 is < 0.01 µM.

Q: And the TGI [47]?
A: Its TGI is > 100 µM.

Q: What about the GI50 [48] of the same molecule?
A: The GI50 was 13.2 µM.

Q: And the TGI [48]?
A: The TGI was > 100 µM.

Q: What about the GI50 [49] of the same molecule?
A: The GI50 was 2.63 µM.

Q: What about the TGI [49] of the same molecule?
A: Its TGI is 34.5 µM.

Q: What about the GI50 [50] of the same molecule?
A: The GI50 was 27 µM.

Q: And the TGI [50]?
A: Its TGI is > 100 µM.

Q: And the GI50 [51]?
A: The GI50 was 2.24 µM.

Q: What about the TGI [51] of the same molecule?
A: The TGI was 39 µM.

Q: What about the GI50 [52] of the same molecule?
A: Its GI50 is 0.0953 µM.

Q: What about the TGI [52] of the same molecule?
A: The TGI was > 100 µM.

Q: What about the GI50 [53] of the same molecule?
A: The GI50 was < 0.01 µM.

Q: What about the GI50 [54] of the same molecule?
A: Its GI50 is 34.5 µM.

Q: And the TGI [54]?
A: The TGI was > 100 µM.

Q: And the GI50 [55]?
A: The GI50 was 0.433 µM.

Q: And the TGI [55]?
A: Its TGI is > 100 µM.

Q: What about the GI50 [56] of the same molecule?
A: The GI50 was 14 µM.

Q: And the TGI [56]?
A: The TGI was > 100 µM.

Q: And the GI50 [57]?
A: The GI50 was 0.25 µM.

Q: And the TGI [57]?
A: The TGI was > 100 µM.

Q: And the GI50 [58]?
A: Its GI50 is < 0.01 µM.

Q: What about the TGI [58] of the same molecule?
A: The TGI was 0.0319 µM.

— PubChem BioAssay (NCI)
